In US8134015B2, “Compound inhibiting in vivo phosphorous transport and medicine containing the same” (Kyowa Hakko Kirin Co., Ltd., priority 2003, dated 2012):
pIC50: −log10 of the molar value.

Target: T1, rat NaPi-2b (Rattus norvegicus, UniProt Q9JJ09)
T1 construct: expressed in transfected cells; host or cells: Xenopus oocytes injected with cRNA
T1 sequence (Q9JJ09 1-695): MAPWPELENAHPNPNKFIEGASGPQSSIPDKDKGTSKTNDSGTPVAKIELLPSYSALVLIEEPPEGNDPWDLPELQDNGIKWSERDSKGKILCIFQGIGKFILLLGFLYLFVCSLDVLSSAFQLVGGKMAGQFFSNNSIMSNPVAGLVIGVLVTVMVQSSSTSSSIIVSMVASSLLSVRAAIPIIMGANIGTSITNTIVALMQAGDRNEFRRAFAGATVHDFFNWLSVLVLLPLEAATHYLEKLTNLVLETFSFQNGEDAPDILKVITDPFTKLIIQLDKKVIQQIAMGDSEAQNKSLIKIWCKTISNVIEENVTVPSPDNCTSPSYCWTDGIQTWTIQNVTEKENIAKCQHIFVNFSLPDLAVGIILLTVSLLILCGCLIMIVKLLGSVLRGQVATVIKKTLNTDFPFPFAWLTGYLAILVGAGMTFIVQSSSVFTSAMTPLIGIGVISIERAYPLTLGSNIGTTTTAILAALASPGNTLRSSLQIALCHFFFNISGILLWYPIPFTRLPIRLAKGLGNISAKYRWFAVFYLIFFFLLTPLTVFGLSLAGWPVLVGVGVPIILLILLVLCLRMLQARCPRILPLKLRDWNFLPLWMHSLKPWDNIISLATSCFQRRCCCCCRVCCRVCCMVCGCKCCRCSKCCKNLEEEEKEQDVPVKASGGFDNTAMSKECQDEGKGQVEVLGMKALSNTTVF
Assay: Sodium-dependent phosphate uptake of Xenopus oocytes which expressed NaPi-2b (32P)
Assay type: cell-based
Conditions: Xenopus oocytes expressing rat NaPi-2b, 32P radioactive phosphorus; read-out: IC50 (phosphate uptake inhibitory activity)
Procedure, shortened: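 Rat NaPi-2b cloned from small-intestine cDNA; cRNA injected into Xenopus oocytes, expression for 2 days. Phosphate uptake inhibition measured with 32P; percent inhibition at 300 μM and 100 μM read from the same inhibition curve.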

pIC50	SMILES
4.27	CN(C)c1ccc(/C=C/C=N/NC(=O)c2ccccc2NC(=O)c2cccnc2)cc1 [Compound 358, N-{2-[3-(4-Dimethylamino-phenyl)-allylidene-hydrazinocarbonyl]-phenyl}-nicotinamide]
5.15	O=C(Nc1ccc(Cl)cc1C(=O)N/N=C/c1cccc(F)c1)c1ccccn1 [Compound 359, Pyridin-2-carboxylic acid [4-chloro-2-(3-fluoro-benzylidene-hydrazinocarbonyl)-phenyl]-amide]
6.20	O=C(Nc1ccc(Cl)cc1C(=O)N/N=C/c1ccc(F)cc1)c1ccccn1 [Compound 360, Pyridin-2-carboxylic acid [4-chloro-2-(4-fluoro-benzylidene-hydrazinocarbonyl)-phenyl]-amide]
> 6.00	Cc1cccc(/C=N/NC(=O)c2cc(Cl)ccc2NC(=O)c2ccccn2)c1 [Compound 361, Pyridin-2-carboxylic acid [4-chloro-2-(3-methyl-benzylidene-hydrazinocarbonyl)-phenyl]-amide]
> 6.00	Cc1ccc(/C=N/NC(=O)c2cc(Cl)ccc2NC(=O)c2ccccn2)cc1 [Compound 362, Pyridin-2-carboxylic acid [4-chloro-2-(4-methyl-benzylidene-hydrazinocarbonyl)-phenyl]-amide]
> 6.00	Cc1ccc(/C=N/NC(=O)c2cc(Cl)ccc2NC(=O)c2ccccn2)cc1C [Compound 363, Pyridin-2-carboxylic acid [4-chloro-2-(3,4-dimethyl-benzylidene-hydrazinocarbonyl)-phenyl]-amide]
> 6.00	O=C(Nc1ccc(Cl)cc1C(=O)N/N=C/c1ccc(Cl)c(C(F)(F)F)c1)c1ccccn1 [Compound 364, Pyridin-2-carboxylic acid [4-chloro-2-(4-chloro-3-trifluoromethyl-benzylidene-hydrazinocarbonyl)-phenyl]-amide]
5.16	COc1ccc(C(=O)Nc2ccc(Br)cc2C(=O)NNCc2ccc(C)cc2)cc1OC [Compound 367, N-{4-Bromo-2-[N′-(4-methyl-benzyl)-hydrazinocarbonyl]-phenyl}-3,4-dimethoxy-benzamide]
5.86	O=C(Nc1ccc(Cl)cc1C(=O)N/N=C/c1cccc(F)c1)c1cccc(CN2CCC(N3CCCCC3)CC2)c1 [Compound 368, 3-[1,4′]Bipiperidinyl-1′-ylmethyl-N-[4-chloro-2-(3-fluoro-benzylidene-hydrazinocarbonyl)-phenyl]-benzamide]
5.84	O=C(Nc1ccc(Cl)cc1C(=O)N/N=C/c1ccc(F)cc1)c1cccc(CN2CCC(N3CCCCC3)CC2)c1 [Compound 369, 3-[1,4′]Bipiperidinyl-1′-ylmethyl-N-[4-chloro-2-(4-fluoro-benzylidene-hydrazinocarbonyl)-phenyl]-benzamide]
5.73	Cc1cccc(/C=N/NC(=O)c2cc(Cl)ccc2NC(=O)c2cccc(CN3CCC(N4CCCCC4)CC3)c2)c1 [Compound 370, 3-[1,4′]Bipiperidinyl-1′-ylmethyl-N-[4-chloro-2-(3-methyl-benzylidene-hydrazinocarbonyl)-phenyl]-benzamide]
5.60	Cc1ccc(/C=N/NC(=O)c2cc(Cl)ccc2NC(=O)c2cccc(CN3CCC(N4CCCCC4)CC3)c2)cc1 [Compound 371, 3-[1,4′]Bipiperidinyl-1′-ylmethyl-N-[4-chloro-2-(4-methyl-benzylidene-hydrazinocarbonyl)-phenyl]-benzamide]

Same assay, conditions: phosphate uptake, oocytes expressing rat NaPi-2b; 300 μM, determined from inhibition curve

inhibition at 300 µM [%]	SMILES
65.8	Cc1cccc(/C=N/NC(=O)c2cc(Br)ccc2NC(=O)c2ccc(CSc3cccc(F)c3)cc2)c1 [Compound 357, N-[4-Bromo-2-(3-methyl-benzylidene-hydrazinocarbonyl)-phenyl]-4-(3-fluoro-phenylsulfanylmethyl)-benzamide]
69.9	Cc1ccc(CNNC(=O)c2cc(Cl)ccc2NC(=O)c2cccc(CSc3ccncc3)c2)cc1C [Compound 366, N-{4-Chloro-2-[N′-(3,4-dimethyl-benzyl)-hydrazinocarbonyl]-phenyl}-3-(pyridin-4-ylsulfanylmethyl)-benzamide]
